Patent publication US20080287479A1, “INHIBITORS OF SERINE PALMITOYLTRANSFERASE” (Pfizer Inc, priority 2006, published 2008)
Counter-ions that a name gives are not always drawn. Like-named read-outs stand apart in the source and are kept apart here.

Target: T1, Serine Palmitoyl Transferase (SPT); microsomes from HEK 293 cells stably transfected with human LCB2 subunit of SPT (Homo sapiens, UniProt O15270)
T1 construct: expressed in transfected cells; host or cells: HEK 293 cells stably transfected with LCB2; microsomal fraction
T1 sequence (O15270 1-562): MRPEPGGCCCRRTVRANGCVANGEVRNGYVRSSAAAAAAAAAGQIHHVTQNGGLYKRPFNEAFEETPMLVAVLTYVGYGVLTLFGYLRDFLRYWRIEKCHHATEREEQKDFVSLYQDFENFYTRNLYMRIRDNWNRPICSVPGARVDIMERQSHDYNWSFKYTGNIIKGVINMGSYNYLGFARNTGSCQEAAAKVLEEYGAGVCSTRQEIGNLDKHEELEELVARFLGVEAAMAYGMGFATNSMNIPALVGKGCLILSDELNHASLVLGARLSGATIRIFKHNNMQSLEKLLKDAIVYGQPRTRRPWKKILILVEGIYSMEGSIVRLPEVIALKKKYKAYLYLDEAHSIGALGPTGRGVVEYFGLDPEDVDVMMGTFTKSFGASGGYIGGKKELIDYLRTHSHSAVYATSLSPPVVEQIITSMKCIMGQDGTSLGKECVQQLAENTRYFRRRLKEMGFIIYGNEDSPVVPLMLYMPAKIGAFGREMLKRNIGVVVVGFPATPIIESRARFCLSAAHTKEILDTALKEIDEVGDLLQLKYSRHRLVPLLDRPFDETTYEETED
T1 sequence (O15269 1-473 partner): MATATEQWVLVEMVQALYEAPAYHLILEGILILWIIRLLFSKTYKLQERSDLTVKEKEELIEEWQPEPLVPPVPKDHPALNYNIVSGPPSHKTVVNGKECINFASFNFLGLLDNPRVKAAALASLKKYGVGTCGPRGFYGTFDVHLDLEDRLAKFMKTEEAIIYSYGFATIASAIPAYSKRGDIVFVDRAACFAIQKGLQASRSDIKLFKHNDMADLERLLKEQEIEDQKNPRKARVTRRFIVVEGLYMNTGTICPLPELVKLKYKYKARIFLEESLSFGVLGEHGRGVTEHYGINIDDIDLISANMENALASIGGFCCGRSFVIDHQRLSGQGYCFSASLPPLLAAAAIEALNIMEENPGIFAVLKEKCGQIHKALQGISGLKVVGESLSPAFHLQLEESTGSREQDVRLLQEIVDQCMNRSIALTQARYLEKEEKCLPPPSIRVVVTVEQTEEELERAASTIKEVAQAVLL
T1 sequence (Q969W0 1-71 partner): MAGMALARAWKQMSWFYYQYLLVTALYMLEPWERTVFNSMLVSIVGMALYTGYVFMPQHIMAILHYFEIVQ
Experiment: SPT flashplate assay
Format: biochemical

[1] = microsomes of HEK 293 LCB2 cells, 3H-serine and palmitoyl CoA, phospholipid coated flashplate, 18-24 hours at room temperature, read-out: SPTISF IC50

Row | SMILES | IC50 [1] | IC50 (SPTISF IC50 (nM))
1 | COC1(C)CCN(C(=O)CN2CCC(n3c(=O)[nH]c4cc(C(C)=O)ccc43)CC2)CC1 [Example 55, 5-acetyl-1-{1-[2-(4-methoxy-4-methylpiperidin-1-yl)-2-oxoethyl]piperidin-4-yl}-1,3-dihydro-2H-benzimidazol-2-one; HCl salt] | 71 nM | –
2 | CNC(=O)c1cc2[nH]c(=O)n(C3CCN(CC(=O)N4CCC(C)(OC)CC4)CC3)c2cc1F [Example 32, 6-fluoro-1-{1-[2-(4-methoxy-4-methylpiperidin-1-yl)-2-oxoethyl]piperidin-4-yl}-N-methyl-2-oxo-2,3-dihydro-1H-benzimidazole-5-carboxamide] | 26 nM | –
3 | CNC(=O)c1cc2[nH]c(=O)n(C3CCN(CC(=O)C4CCCCC4)CC3)c2cc1F [Example 11, 1-[1-(2-cyclohexyl-2-oxoethyl)piperidin-4-yl]-6-fluoro-N-methyl-2-oxo-2,3-dihydro-1H-benzimidazole-5-carboxamide] | 63 nM | –
4 | CNC(=O)c1ccc2c(c1)CC(=O)N2C1CCN(CC(=O)N2CCC3(CC2)CC3)CC1 [Example 25, 1-[2-6-azaspiro[2.5]oct-6-yl)-2-oxoethyl]-4-{5-[(methylamino)carbonyl]-2-oxo-2,3-dihydro-1H-indol-1-yl}piperidinium chloride] | – | 2.64 nM
5 | CCc1ccc(C(=O)CN2CCC(n3c(=O)[nH]c4cc(C(=O)NC)c(F)cc43)CC2)cc1 [Example 9, 1-[2-(4-ethylphenyl)-2-oxoethyl]-4-{6-fluoro-5-[(methylamino)carbonyl]-2-oxo-2,3-dihydro-1H-benzimidazol-1-yl}piperidinium chloride] | – | 6.2 nM
6 | CNC(=O)c1cc2[nH]c(=O)n(C3CCN(CC(=O)N4C[C@H]5CCC[C@H]5C4)CC3)c2cc1F [Example 31, 6-fluoro-1-(1-{2-[(3aR,6aS)-hexahydrocyclopenta[c]pyrrol-2(1H)-yl]-2-oxoethyl}piperidin-4-yl)-N-methyl-2-oxo-2,3-dihydro-1H-benzimidazole-5-carboxamide] | 14.7 nM | –
7 | CS(=O)(=O)c1ccc2c(c1)[nH]c(=O)n2C1CCN(CC(=O)C2CCC(C(F)(F)F)CC2)CC1 (stereo not shown) [Example 44, 1-{1-[2-(4-trifluoromethylcyclohexyl)-2-oxoethyl]piperidin-4-yl}-5-(methylsulfonyl)-1,3-dihydro-2H-benzimidazol-2-one] | 51.7 nM | –
8 | CNC(=O)c1cc2[nH]c(=O)n(C3CCN(CC(=O)N4CC5CCC(CC5)C4)CC3)c2cc1F [Example 30, 1-{1-[2-(3-azabicyclo[3.2.2]non-3-yl)-2-oxoethyl]piperidin-4-yl}-6-fluoro-N-methyl-2-oxo-2,3-dihydro-1H-benzimidazole-5-carboxamide] | 14.5 nM | –
9 | CNC(=O)c1cc2[nH]c(=O)n(C3CCN(CC(=O)C4(C)CCCCC4)CC3)c2cc1F [Example 17, 6-fluoro-N-methyl-1-{1-[2-(1-methylcyclohexyl)-2-oxoethyl]piperidin-4-yl}-2-oxo-2,3-dihydro-1H-benzimidazole-5-carboxamide] | 7.14 nM | –
10 | CNC(=O)c1cc2[nH]c(=O)n(C3CCN(CC(=O)C4CCC(C)CC4)CC3)c2cc1F (stereo not shown) [Example 13, 6-fluoro-N-methyl-1-{1-[2-(4-methylcyclohexyl)-2-oxoethyl]piperidin-4-yl}-2-oxo-2,3-dihydro-1H-benzimidazole-5-carboxamide] | 6 nM | –
